Test results as given in patent US8680290B2, “Isoxazoline derivatives and their use as herbicides” (Syngenta Limited, priority 2004, dated 2014).

What was measured:
[1] = tested on: Monocotyledonous and dicotyledonous test plants; assay: Example B1 herbicidal action, application pre-emergence (Table B1b); format: in vivo; details: 250 g/ha, evaluated after 4 weeks
Method in brief: (§1)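 Compounds sprayed as aqueous solution from acetone/Emulsogen EL/NMP/dipropylene glycol monomethyl ether/X-77 formulation onto soil right after sowing (pre-emergence) or onto 8–9-day plants (post-emergence); greenhouse-grown. Damage scored 0 (none) to 10 (total) after 4 weeks pre- or 3 weeks post-emergence.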

[2] = tested on: Monocotyledonous and dicotyledonous test plants; assay: Example B1 herbicidal action, application post-emergence (Table B1a); format: in vivo; details: 250 g/ha, evaluated after 3 weeks, scale 0-10
Method in brief: as §1

| Compound | herbicidal action (damage rating 0-10), Amaranthus [1] | herbicidal action (damage rating 0-10), Digitaria [1] | herbicidal action (damage rating 0-10), Panicum [1] | herbicidal action (damage rating 0-10), Setaria [1] | herbicidal action (damage rating 0-10), Sida [1] | herbicidal damage rating, Abutilon [2] | herbicidal damage rating, Amaranthus [2] | herbicidal damage rating, Digitaria [2] | herbicidal damage rating, Panicum [2] | herbicidal damage rating, Setaria [2] | herbicidal damage rating, Sida [2] |
| --- | --- | --- | --- | --- | --- | --- | --- | --- | --- | --- | --- |
| CC1(C)CC(S(=O)(=O)C(F)(F)c2ccccc2C#N)=NO1 [1.72] | 10 | 10 | 10 | 10 | 6 | 3 | 8 | 7 | 7 | 8 | 0 |
| Cn1nc(C(F)(F)F)c(C(F)(Cl)S(=O)(=O)C2=NOC(C)(C)C2)c1OCC(F)(F)F (stereo not shown) [2.12] | 10 | 10 | 10 | 10 | 8 | 6 | 0 | 6 | 7 | 7 | 6 |
| CC1(C)CC(S(=O)(=O)C(Br)c2ccccc2C#N)=NO1 (racemic) [1.83] | 9 | 9 | 10 | 9 | 0 | 5 | 5 | 9 | 7 | 7 | 3 |
| Cn1nc(C(F)(F)F)c(C(F)(F)S(=O)(=O)C2=NOC(C)(C)C2)c1OC(F)F [2.11] | 10 | 10 | 10 | 10 | 9 | 7 | 5 | 7 | 7 | 7 | 7 |
| CC1(C)CC(S(=O)(=O)C(F)(Cl)c2ccccc2[S+]([O-])C(F)(F)F)=NO1 (stereo not shown) [1.97] | 8 | 10 | 10 | 9 | 0 | 4 | 5 | 8 | 5 | 7 | 0 |
| CC1(C)CC(S(=O)(=O)C(Cl)c2ccccc2OC(F)(F)F)=NO1 (stereo not shown) [1.143] | 7 | 10 | 10 | 10 | 7 | 3 | 7 | 7 | 7 | 6 | 2 |
| CC1(C)CC(S(=O)(=O)C(F)(Cl)c2ccccc2C(F)(F)F)=NO1 (racemic) [1.95] | 7 | 10 | 10 | 10 | 7 | 0 | 0 | 8 | 7 | 3 | 2 |
| CC1(C)CC(S(=O)(=O)C(F)(F)c2cc(F)ccc2F)=NO1 [1.114] | 10 | 10 | 10 | 10 | 9 | 3 | 3 | 8 | 3 | 8 | 2 |
| CC1(C)CC(S(=O)(=O)C(F)(I)c2c(F)cccc2F)=NO1 (racemic) [Compound No. 1.61] | 10 | 10 | 10 | 10 | 7 | 3 | 0 | 7 | 4 | 6 | 3 |
| CCOC(=O)c1ccc(C(F)(F)S(=O)(=O)C2=NOC(C)(C)C2)c(F)c1 [1.120] | 8 | 6 | 8 | 0 | 5 | 7 | 0 | 8 | 3 | 4 | 0 |
| Cc1ccc(F)c(C(F)(Cl)S(=O)(=O)C2=NOC(C)(C)C2)c1F (stereo not shown) [1.146] | 8 | 10 | 10 | 10 | 5 | 5 | 3 | 8 | 5 | 6 | 2 |
| Cn1nc(C(F)(F)F)c(C(Cl)(Cl)S(=O)(=O)C2=NOC(C)(C)C2)c1OC(F)F [2.15] | 10 | 10 | 10 | 10 | 8 | 4 | 0 | 6 | 2 | 4 | 4 |
| CC1(C)CC(S(=O)(=O)C(F)(Cl)c2ccccc2OC(F)(F)F)=NO1 (stereo not shown) [1.144] | 10 | 10 | 10 | 10 | 8 | 3 | 3 | 8 | 7 | 7 | 5 |
| CC1(C)CC(S(=O)(=O)C(c2c(F)cccc2F)C(F)(F)F)=NO1 (stereo not shown) [Compound No. 1.113, 3-[1-(2,6-difluoro-phenyl)-2,2,2-trifluoro-ethanesulfonyl]-5,5-dimethyl-4,5-dihydroisoxazole] | 8 | 9 | 10 | 10 | 0 | 2 | 0 | 8 | 3 | 7 | 4 |
| CC1(C)CC(S(=O)(=O)C(F)(Cl)c2ccccc2C#N)=NO1 (racemic) [1.71] | 10 | 9 | 10 | 9 | 5 | 0 | 5 | 8 | 0 | 3 | 2 |
| CC1(C)CC(S(=O)(=O)C(Cl)c2cccnc2Cl)=NO1 (stereo not shown) [8.01] | 5 | 8 | 8 | 5 | 0 | 3 | 0 | 0 | 3 | 0 | 3 |
| CC1(C)CC(S(=O)(=O)C(Br)c2c(F)cccc2C(F)(F)F)=NO1 (racemic) [1.80] | 10 | 10 | 10 | 10 | 9 | 4 | 0 | 8 | 5 | 7 | 5 |
